From BindingDB's records for doi:10.1016/j.bmcl.2018.05.027 (Bristol-Myers Squibb Research and Development, 2018)

How the values were obtained:
[1] = Inhibition of HIV-1 integrase strand transfer activity assessed as reduction in viral replication in presence of 10% fetal bovine serum
[2] = Inhibition of HIV-1 integrase strand transfer activity assessed as reduction in viral replication in presence of 10% fetal bovine serum and 15 mg/mL human serum albumin
[3] = Inhibition of HIV-1 integrase strand transfer activity assessed as reduction in viral replication in presence of 40% human serum

Compound	EC50 [1] [nM]	EC50 [2] [nM]	EC50 [3] [nM]
CC1(C)OCCn2c1nc(C(=O)NCc1ccc(F)cc1Cl)c(O)c2=O	53	857	
CC1(C)OCCn2c1nc(C(=O)NCc1ccc(F)cc1N1CCCCS1(=O)=O)c(O)c2=O	2	7	
CS(=O)(=O)c1cc(F)ccc1CNC(=O)c1nc2n(c(=O)c1O)CCCC21CCCC1	1	8	
CC1(C)OCCn2c1nc(C(=O)NCc1ccc(F)cc1N1CCOCC1)c(O)c2=O	2	19	
CC1(C)OCCn2c1nc(C(=O)NCc1ccc(F)cc1S(C)(=O)=O)c(O)c2=O	3	6	
Cc1cc(F)ccc1CNC(=O)c1nc2n(c(=O)c1O)CCOC2(C)C	21	557	
CN(C)S(=O)(=O)c1cc(F)ccc1CNC(=O)c1nc2n(c(=O)c1O)CCCC21CCCC1	3	27	
CC1(C)OCCn2c1nc(C(=O)NCc1ccc(F)c(Cl)c1)c(O)c2=O	2	84	
CN(C)S(=O)(=O)c1c(CNC(=O)c2nc3n(c(=O)c2O)CCOC3(C)C)ccc(F)c1F	3	12	
Cc1cc(CNC(=O)c2nc3n(c(=O)c2O)CCCC32CCCC2)ccc1F	5	149	
O=C(NCc1ccc(F)cc1S(=O)(=O)N1CCOCC1)c1nc2n(c(=O)c1O)CCCC21CCCC1	3	14	
CNC(=O)c1cc(F)ccc1CNC(=O)c1nc2n(c(=O)c1O)CCOC2(C)C	2	3	
O=C(NCc1ccc(F)cc1N1CCCCS1(=O)=O)c1nc2n(c(=O)c1O)CCCC21CCCC1	2	21	
Cc1cc(CNC(=O)c2nc3n(c(=O)c2O)CCOC3(C)C)ccc1F	1	90	
CC1(C)OCCn2c1nc(C(=O)NCc1ccc(F)cc1)c(O)c2=O	2	17	25
O=C(NCc1ccc(F)cc1)c1nc2n(c(=O)c1O)CCCC21CCCC1	2	19	
